Test results: ChEMBL document CHEMBL1909046, “DrugMatrix in vitro pharmacology data”

Key:
[1] = target: Delta-type opioid receptor (Homo sapiens, UniProt P41143); assay type: cell membranes, HEK293, Membrane; conditions: hek293; further: in other assays of this panel Not Active means under 50% inhibition at 10 µM
[2] = DRUGMATRIX: Imidazoline I2, Central radioligand binding (ligand: [3H] Idazoxan); assay type: cell membranes, Rattus norvegicus, Wistar, Cerebral cortex, Membrane; conditions: Not Active = under 50% inhibition at 10 µM
[3] = target: T1, Muscarinic acetylcholine receptor M4 (Homo sapiens, UniProt P08173); assay type: cell membranes, CHO-K1, Membrane; conditions: cho-k1; further: in other assays of this panel Not Active means under 50% inhibition at 10 µM
T1 sequence (P08173 whole entry): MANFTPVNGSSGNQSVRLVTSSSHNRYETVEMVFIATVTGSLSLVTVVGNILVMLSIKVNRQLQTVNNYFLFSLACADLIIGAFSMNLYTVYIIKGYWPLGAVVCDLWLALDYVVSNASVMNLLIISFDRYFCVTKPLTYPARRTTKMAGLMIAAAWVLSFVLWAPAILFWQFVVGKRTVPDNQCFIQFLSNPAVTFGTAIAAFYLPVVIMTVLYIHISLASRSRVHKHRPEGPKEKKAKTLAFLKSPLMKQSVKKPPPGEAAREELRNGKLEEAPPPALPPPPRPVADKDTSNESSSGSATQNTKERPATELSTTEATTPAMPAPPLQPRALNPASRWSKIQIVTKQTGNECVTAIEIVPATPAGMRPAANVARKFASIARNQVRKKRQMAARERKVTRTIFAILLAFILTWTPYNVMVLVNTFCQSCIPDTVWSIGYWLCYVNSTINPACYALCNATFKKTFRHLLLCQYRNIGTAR

[4] = target: T2, B2 bradykinin receptor (Homo sapiens, UniProt P30411); assay type: cell membranes, Membrane; conditions: chem-1; further: in other assays of this panel Not Active means under 50% inhibition at 10 µM
T2 sequence (P30411 whole entry): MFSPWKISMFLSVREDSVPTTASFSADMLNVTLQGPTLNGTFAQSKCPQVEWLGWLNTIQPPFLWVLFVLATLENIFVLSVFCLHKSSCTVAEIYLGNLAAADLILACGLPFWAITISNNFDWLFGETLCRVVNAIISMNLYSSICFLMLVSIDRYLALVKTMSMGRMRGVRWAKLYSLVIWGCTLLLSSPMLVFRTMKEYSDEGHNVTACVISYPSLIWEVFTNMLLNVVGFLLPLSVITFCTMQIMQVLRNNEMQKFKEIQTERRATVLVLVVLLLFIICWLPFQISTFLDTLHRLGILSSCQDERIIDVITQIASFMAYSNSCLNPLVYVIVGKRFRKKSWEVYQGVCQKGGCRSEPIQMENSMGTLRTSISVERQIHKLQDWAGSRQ

[5] = target: T3, Receptor-type tyrosine-protein phosphatase C (Homo sapiens, UniProt P08575); design: species or system Escherichia coli;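 further: inhibition of CD45 enzyme activity measured using DiFMUP as substrate; in other assays of this panel Not Active means under 50% inhibition at 10 µM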
T3 sequence (P08575 whole entry): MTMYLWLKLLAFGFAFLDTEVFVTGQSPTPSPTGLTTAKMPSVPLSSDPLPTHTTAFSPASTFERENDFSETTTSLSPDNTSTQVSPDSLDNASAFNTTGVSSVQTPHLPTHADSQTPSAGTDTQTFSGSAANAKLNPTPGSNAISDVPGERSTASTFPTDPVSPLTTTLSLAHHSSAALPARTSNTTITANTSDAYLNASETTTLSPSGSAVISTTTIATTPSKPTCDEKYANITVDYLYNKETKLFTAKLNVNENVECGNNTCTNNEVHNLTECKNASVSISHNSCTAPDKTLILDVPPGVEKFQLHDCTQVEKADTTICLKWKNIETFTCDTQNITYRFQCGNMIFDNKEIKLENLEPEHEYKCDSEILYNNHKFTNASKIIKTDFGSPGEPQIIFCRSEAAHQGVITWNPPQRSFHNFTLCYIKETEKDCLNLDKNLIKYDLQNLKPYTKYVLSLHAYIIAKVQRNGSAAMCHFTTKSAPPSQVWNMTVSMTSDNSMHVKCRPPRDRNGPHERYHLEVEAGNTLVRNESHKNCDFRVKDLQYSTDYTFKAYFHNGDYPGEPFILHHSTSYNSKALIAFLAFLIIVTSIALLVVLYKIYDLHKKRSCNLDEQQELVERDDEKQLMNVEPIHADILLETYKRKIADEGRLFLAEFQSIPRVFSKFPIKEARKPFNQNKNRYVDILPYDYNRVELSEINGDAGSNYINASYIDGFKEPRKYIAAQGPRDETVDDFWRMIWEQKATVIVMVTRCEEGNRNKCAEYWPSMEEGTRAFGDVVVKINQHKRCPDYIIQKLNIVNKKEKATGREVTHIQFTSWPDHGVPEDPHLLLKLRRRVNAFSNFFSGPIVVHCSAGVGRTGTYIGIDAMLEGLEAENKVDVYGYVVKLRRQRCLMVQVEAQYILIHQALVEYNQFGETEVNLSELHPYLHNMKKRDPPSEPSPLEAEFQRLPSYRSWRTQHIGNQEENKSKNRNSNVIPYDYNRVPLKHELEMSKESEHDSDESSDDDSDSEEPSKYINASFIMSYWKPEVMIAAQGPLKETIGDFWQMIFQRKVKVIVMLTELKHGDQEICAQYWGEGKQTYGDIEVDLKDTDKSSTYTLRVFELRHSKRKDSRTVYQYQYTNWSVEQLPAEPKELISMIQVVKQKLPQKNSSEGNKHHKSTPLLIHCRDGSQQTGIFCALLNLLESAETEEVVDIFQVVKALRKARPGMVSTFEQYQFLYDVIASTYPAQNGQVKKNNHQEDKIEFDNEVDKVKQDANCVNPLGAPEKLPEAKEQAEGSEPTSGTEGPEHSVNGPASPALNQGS

[6] = target: Beta-3 adrenergic receptor (Homo sapiens, UniProt P13945); test: DRUGMATRIX: Adrenergic beta3 radioligand binding (ligand: [125I] Cyanopindolol); assay type: cell membranes, HEK293, Membrane; conditions: hek293; Not Active = under 50% inhibition at 10 µM
Sequence of Beta-3 adrenergic receptor (P13945 whole entry): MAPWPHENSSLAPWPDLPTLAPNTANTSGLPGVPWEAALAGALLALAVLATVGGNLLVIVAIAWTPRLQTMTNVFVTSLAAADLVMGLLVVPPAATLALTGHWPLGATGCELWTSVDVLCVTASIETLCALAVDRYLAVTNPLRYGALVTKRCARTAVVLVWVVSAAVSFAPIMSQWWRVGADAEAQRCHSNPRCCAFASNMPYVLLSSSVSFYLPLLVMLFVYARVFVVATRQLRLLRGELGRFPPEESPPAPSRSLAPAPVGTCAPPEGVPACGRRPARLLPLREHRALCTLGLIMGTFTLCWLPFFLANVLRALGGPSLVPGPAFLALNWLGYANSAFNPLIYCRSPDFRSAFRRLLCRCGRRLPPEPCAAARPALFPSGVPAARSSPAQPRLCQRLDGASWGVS

Sequence of Delta-type opioid receptor (P41143 whole entry): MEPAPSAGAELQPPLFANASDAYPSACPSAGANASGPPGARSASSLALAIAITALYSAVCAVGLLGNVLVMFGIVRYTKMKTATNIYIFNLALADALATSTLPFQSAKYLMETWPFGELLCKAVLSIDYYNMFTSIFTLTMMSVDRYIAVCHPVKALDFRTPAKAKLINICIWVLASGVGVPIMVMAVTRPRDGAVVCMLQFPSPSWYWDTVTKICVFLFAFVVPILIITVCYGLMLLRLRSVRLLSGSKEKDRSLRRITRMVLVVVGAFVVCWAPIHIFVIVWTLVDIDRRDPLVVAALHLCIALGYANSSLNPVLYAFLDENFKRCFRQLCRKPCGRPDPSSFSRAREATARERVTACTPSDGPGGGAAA

Molecule	IC50 [1]	IC50 [2]	Ki [2]	IC50 [3]	IC50 [4]	IC50 [5]	IC50 [6]	IC50 ([2]; read-out: IC50) [nM]	Ki ([2]; read-out: Ki) [nM]	Ki [1]	Ki [3]	Ki [4]	Ki [5]	Ki [6]
C=C(C)[C@H]1Cc2c(ccc3c2O[C@@H]2COc4cc(OC)c(OC)cc4[C@@H]2C3=O)O1 [ROTENONE]	Not Active	Not Active	Not Active	Not Active	Not Active	Not Active	Not Active							
C#CCN(C)[C@H](C)Cc1ccccc1 [SELEGILINE]	Not Active			Not Active	Not Active	Not Active	Not Active	1610	1080					
COc1cc(N)nc2[nH]c(-c3ccc(F)cc3)c(-c3ccncc3)c12	Not Active	Not Active	Not Active	Not Active	Not Active	Not Active	Not Active							
THIMEROSAL	Not Active	Not Active	Not Active	Not Active	Not Active	Not Active	Not Active			Not Active	Not Active	Not Active	Not Active	Not Active
CNS(=O)(=O)Cc1ccc2[nH]cc(CCN(C)C)c2c1	Not Active	Not Active	Not Active	Not Active	Not Active	Not Active	Not Active							
C[C@]12CC[C@H]3[C@@H](CCC4=CC(=O)CC[C@@]43C)[C@@H]1CC[C@@H]2O [TESTOSTERONE]	Not Active	Not Active	Not Active	Not Active	Not Active	Not Active	Not Active							
C[C@@H]1C[C@H]2[C@@H]3CCC4=CC(=O)C=C[C@]4(C)C3=CC[C@]2(C)[C@H]1C(=O)CN1CCN(c2cc(N3CCCC3)nc(N3CCCC3)n2)CC1 [TIRILAZAD]	Not Active	Not Active	Not Active	Not Active	Not Active	Not Active	Not Active							
NC[C@H]1O[C@H](O[C@H]2[C@H](O)[C@@H](O[C@H]3O[C@H](CO)[C@@H](O)[C@H](N)[C@H]3O)[C@H](N)C[C@@H]2N)[C@H](N)C[C@@H]1O [TOBRAMYCIN]	Not Active	Not Active	Not Active	Not Active	Not Active	Not Active	Not Active							
CN[C@@H]1[C@H](O)[C@H](NC)[C@H]2O[C@@]3(O)C(=O)C[C@@H](C)O[C@H]3O[C@@H]2[C@H]1O [SPECTINOMYCIN]	Not Active	Not Active	Not Active	Not Active	Not Active	Not Active	Not Active							
CO[C@H]1C[C@@H]2CC[C@@H](C)[C@@](O)(O2)C(=O)C(=O)N2CCCC[C@H]2C(=O)O[C@H]([C@H](C)C[C@@H]2CC[C@@H](O)[C@H](OC)C2)CC(=O)[C@H](C)/C=C(\C)[C@@H](O)[C@@H](OC)C(=O)[C@H](C)C[C@H](C)/C=C/C=C/C=C/1C [SIROLIMUS]	Not Active	Not Active	Not Active	Not Active	Not Active	Not Active	Not Active							
O=P(O)(O)C(O)(Cc1cccnc1)P(=O)(O)O [RISEDRONIC ACID]	Not Active	Not Active	Not Active	Not Active	Not Active	Not Active	Not Active							
COc1ccc(CN2CCNCC2)c(OC)c1OC [TRIMETAZIDINE]	Not Active	Not Active	Not Active	Not Active	Not Active	Not Active	Not Active							
